From paper PMC4122355, “Inhibitor of the Tyrosine Phosphatase STEP Reverses Cognitive Deficits in a Mouse Model of Alzheimer's Disease” (PLoS Biology, 2014)
Where two headings read alike, the source gives them in different places.

Experiments:
[1] = cited from earlier work
[2] = test system: GluN2B (Y1472), Pyk2 (Y402), ERK1/2 (Y204/187) in cortex; assay: Tyr phosphorylation of STEP substrates in cortex of WT mice after i.p. injection; format: in vivo, mouse; details: C57BL/6 mice, 1 mg/kg i.p., 3 h postinjection, relative to vehicle
Experimental: Wild-type, male C57BL/6 mice (3–6 mo) were used for all studies. […] Cortical tissues were dissected out 3 h postinjection and processed for subcellular fractionation. […] Homogenates were centrifuged at 800 × g to remove nuclei and large debris (P1). Synaptosomal fractions (P2) were prepared from S1 by centrifugation at 9,200 × g for 15 min. The P2 pellet was washed twice and was resuspended in TEVP buffer. […] Samples were prepared and resolved by SDS-PAGE, transferred to nitrocellulose membrane, and incubated with phospho-specific antibodies (anti-pY^204/187 ERK1/2, anti-pY^402 Pyk2, anti-pY^1472 GluN2B) or total protein antibodies (anti-ERK2, anti-Pyk2, and anti-NR2B) overnight at 4°C. Immunoreactivity was visualized using a Chemiluminescent substrate kit (Pierce Biotechnology, Rockford, IL) and detected using a G:BOX with the image program GeneSnap (Syngene, Cambridge, UK). All densitometric quantifications were performed using the Genetools program.

[3] = test system: GluN2B (Y1472), Pyk2 (Y402), ERK1/2 (Y204/187) in cortical neurons; assay: Tyr phosphorylation of STEP substrates in cortical neuronal cultures (Western blot); format: cell-based, rat; details: 1 µM dose, 1 h, relative to vehicle
Experimental: (§1) Primary cortical neurons were isolated from Sprague Dawley rat embryos (E18) (Charles River Laboratories, Wilmington, MA) as previously described. In some experiments, cortical neurons were made from WT and STEP KO mouse embryos (E18). Neurons were allowed to grow for 18–21 d in CO2 incubator before addition of compounds at indicated doses for 1 h. Immediately following treatments, neurons were lysed in RadioImmuno Precipitation Assay (RIPA) buffer supplied with protease inhibitor cocktail (Roche Applied Science, Indianapolis, IN) and phosphatase inhibitors (NaF and Na3VO4). All experiments were replicated four times with four independent batches of cultures.
(§2) Samples were prepared and resolved by SDS-PAGE, transferred to nitrocellulose membrane, and incubated with phospho-specific antibodies (anti-pY^204/187 ERK1/2, anti-pY^402 Pyk2, anti-pY^1472 GluN2B) or total protein antibodies (anti-ERK2, anti-Pyk2, and anti-NR2B) overnight at 4°C. Immunoreactivity was visualized using a Chemiluminescent substrate kit (Pierce Biotechnology, Rockford, IL) and detected using a G:BOX with the image program GeneSnap (Syngene, Cambridge, UK). All densitometric quantifications were performed using the Genetools program.

[4] = test system: GluN2B Y1472, Pyk2 Y402, ERK1/2 Y204/187 in WT and STEP KO cortical neurons; assay: Tyr phosphorylation of STEP substrates in WT and STEP KO mouse cortical cultures; format: cell-based; details: STEP KO cultures, 1 h; TC-2153 0.1 and 1 µM, Na3VO4 1 mM
Experimental: as §1, §2

In the case of COc1cc(CCN)c2c(c1OC)SSSSS2 [varacin, reference compound], the “Solubility in aqueous solution” value [1] is listed as “reasonable solubility in aqueous solution”.
For S1SSSSSSS1 [Compound S8, sulfur (S8)], the “Solubility in aqueous solution” value ([1]; stated without reference) is given as “poorly soluble”, the “pERK1/2 in cortex (P2 fraction)” value [2] is given as 1.57±0.13 and the “pGluN2B in cortex (P2 fraction)” value [2] is given as 1.31±0.11. For the same molecule, the “pPyk2 in cortex (P2 fraction)” value [2] was 1.46±0.14, the “pERK1/2 (Y204/187), phospho-signal normalized to total protein and GAPDH” value [3] was 1.67±0.14 and the “pGluN2B (Y1472), phospho-signal normalized to total protein and GAPDH” value [3] was 1.33±0.08. For the same molecule, the “pPyk2 (Y402), phospho-signal normalized to total protein and GAPDH” value [3] was 1.49±0.12.
In the case of [Na+].[Na+].[Na+].[O]=[V]([O-])([O-])[O-] [sodium orthovanadate, reference compound], the “Tyr phosphorylation of STEP substrates in STEP KO cortical cultures” value [4] is reported as “further increased the Tyr phosphorylation of these substrates”.
